According to patent US8741931B2, “Kinase inhibitors” (priority 2007, dated 2014):
Like-named read-outs stand apart in the source and are kept apart here.

Experiments:
PKC delta kinase = PKC delta kinase (Homo sapiens, UniProt Q05655); assay: PKC Delta (coupled enzyme assay); assay type: biochemical
Experimental: (§1) An assay buffer solution was prepared which consisted of 100 mM HEPES (pH 7.5), 10 mM MgCl2, 25 mM NaCl, 0.1 mM EDTA and 0.01% Brij. […] To 16 μL of this enzyme buffer, in a 384 well plate, was added 1 μL of VRT stock solution in DMSO. The mixture was allowed to equilibrate for 10 mins at 30° C. […] Ki values were calculated from initial rate data by non-linear regression using the Prism software package (Prism 4.0a, Graphpad Software, San Diego, Calif.).

PKC alpha kinase = PKC alpha kinase (Homo sapiens, UniProt P17252); assay: PKC Alpha (coupled enzyme assay); assay type: biochemical; conditions: 130 μM ATP, 4.5 nM PKC alpha
Experimental: as §1, with “EDTA, 100 μM CaCl2” for “EDTA”

[1] = 150 μM ATP, 46 nM PKC delta, read-out: Ki PKC delta

Sequence of PKC delta kinase (Q05655 whole entry): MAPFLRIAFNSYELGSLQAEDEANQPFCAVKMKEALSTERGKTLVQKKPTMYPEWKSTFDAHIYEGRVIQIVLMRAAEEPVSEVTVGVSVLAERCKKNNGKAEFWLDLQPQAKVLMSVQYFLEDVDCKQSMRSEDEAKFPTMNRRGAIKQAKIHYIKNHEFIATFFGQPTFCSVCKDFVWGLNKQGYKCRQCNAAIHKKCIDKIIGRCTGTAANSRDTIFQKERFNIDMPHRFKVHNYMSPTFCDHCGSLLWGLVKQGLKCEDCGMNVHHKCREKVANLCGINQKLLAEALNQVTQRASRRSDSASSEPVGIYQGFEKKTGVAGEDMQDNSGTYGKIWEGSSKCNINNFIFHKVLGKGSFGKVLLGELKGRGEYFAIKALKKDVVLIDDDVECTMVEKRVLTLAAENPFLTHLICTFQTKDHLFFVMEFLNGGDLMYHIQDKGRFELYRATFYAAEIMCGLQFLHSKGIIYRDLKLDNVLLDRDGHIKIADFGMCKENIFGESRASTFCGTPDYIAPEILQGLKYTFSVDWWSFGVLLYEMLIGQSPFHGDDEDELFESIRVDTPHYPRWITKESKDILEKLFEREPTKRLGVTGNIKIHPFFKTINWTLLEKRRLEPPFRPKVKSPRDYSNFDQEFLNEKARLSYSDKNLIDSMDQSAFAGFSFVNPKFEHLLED

| Ki (PKC delta kinase; [1]) [nM] | Compound | further results |
| --- | --- | --- |
| 50 to 500 | CCc1cnc(N)c(C(=O)c2cccc(N3CCCNCC3)n2)c1 [compound 105] |  |
| 500 to 2800 | CC(C)(C)CN1CCCN(c2cccc(C(=O)c3cccnc3N)n2)CC1 [compound 126] |  |
| 500 to 2800 | Cc1ccsc1CN1CCCN(c2cccc(C(=O)c3cccnc3N)n2)CC1 [compound 106] |  |
|  | C=C(F)c1ccc(N2CCNC(c3cccc(Cl)c3)C2)nc1C(=O)c1cccnc1N (stereo not drawn) [compound 476] | Ki (PKC alpha kinase): < 50 nM |
| 50 to 500 | CC(C)N1CCCN(c2cccc(C(=O)c3cccnc3N)n2)CC1 [compound 116] |  |
| 50 to 500 | CCC(N)(CNc1ccc(C(F)(F)F)c(C(=O)c2cccnc2N)n1)c1ccccc1 (stereo not drawn) [compound 444] |  |
| 50 to 500 | CCCC1CN(c2ccc(C(F)(F)F)c(C(=O)c3cccnc3N)n2)CCCN1 (stereo not drawn) [compound 437] |  |
| 50 to 500 | CCN1CCCN(c2cccc(C(=O)c3cc(Br)cnc3N)n2)CC1 [compound 115] |  |
| 50 to 500 | C=C(F)c1ccc(N2CCN[C@H](c3ccccc3)C2)nc1C(=O)c1cccnc1N [compound 474] |  |
| 500 to 2800 | CCC(=O)N1CCCN(c2cccc(C(=O)c3cccnc3N)n2)CC1 [compound 20] |  |
| 50 to 500 | C[C@@H]1CNCCN1c1ccc(C(F)(F)F)c(C(=O)c2cccnc2N)n1 [compound 484] |  |
| 50 to 500 | CCC1CN(c2ccc(C(F)(F)F)c(C(=O)c3cccnc3N)n2)CCN1 (stereo not drawn) [compound 432] |  |
| 50 to 500 | Nc1ncccc1C(=O)c1nc(OCCC(N)c2ccccc2)ccc1C(F)(F)F (stereo not drawn) [compound 427] |  |
| 50 to 500 | CC(C)C[C@H]1CN(c2ccc(C(F)(F)F)c(C(=O)c3cccnc3N)n2)CC2(CCC2)N1 [compound 471] |  |
|  | Nc1ncccc1C(=O)c1nc(N2CCNC(c3cccc(Cl)c3)C2)ccc1C(F)(F)F (stereo not drawn) [compound 497] | Ki (PKC alpha kinase): < 50 nM |
| 50 to 500 | Nc1ncccc1C(=O)c1nc(N2CCNC(CC3CC3)C2)ccc1C(F)(F)F (stereo not drawn) [compound 441] |  |
|  | NCC(CNc1ccc(C(F)(F)F)c(C(=O)c2cccnc2N)n1)c1ccccc1 (stereo not drawn) [compound 431] | Ki (PKC alpha kinase): < 50 nM |
| 500 to 2800 | Nc1ncccc1C(=O)c1cccc(N2CCCN(CCc3ccccc3)CC2)n1 [compound 120] |  |
| 50 to 500 | CC(C)C(O)C1CN(c2ccc(C(F)(F)F)c(C(=O)c3cccnc3N)n2)CCN1 (stereo not drawn) [compound 461] |  |
| > 2800 | Cn1cc(-c2cccc(C(=O)c3cccnc3N)n2)cn1 [compound 292] |  |

| Ki (PKC delta kinase; [1]) [nM] | Compound | further results |
| --- | --- | --- |
| 50 to 500 | CCC(N)(COc1ccc(C(F)(F)F)c(C(=O)c2cccnc2N)n1)c1ccccc1 (stereo not drawn) [compound 440] |  |
| 50 to 500 | CC(C)CC(C)(N)CNc1ccc(C(F)(F)F)c(C(=O)c2cccnc2N)n1 (stereo not drawn) [compound 443] |  |
| 50 to 500 | CC(C)C[C@H]1CN(c2ccc(C(F)(F)F)c(C(=O)c3cc(Br)cnc3N)n2)CCN1 [compound 479] |  |
|  | CC[C@](CN)(CNc1ccc(C(F)(F)F)c(C(=O)c2cccnc2N)n1)c1ccccc1 [compound 463] | Ki (PKC alpha kinase): < 50 nM |
|  | CC(C)C[C@H]1CN(c2ccc(-c3ccccc3F)c(C(=O)c3cccnc3N)n2)CCN1 [compound 435] | Ki (PKC alpha kinase): < 50 nM |
| > 2800 | CC1CCCCC1C(=O)N1CCCN(c2cccc(C(=O)c3cccnc3N)n2)CC1 (stereo not drawn) [compound 93] |  |
|  | CC(C)C[C@H]1CN(c2ccc(C(F)(F)F)c(C(=O)c3cccnc3N)n2)C[C@@H](C)N1 [compound 490] | Ki (PKC alpha kinase): < 50 nM |
| 50 to 500 | Cc1sc(N2CCN[C@@H](CC(C)C)C2)nc1C(=O)c1cccnc1N [compound 505] |  |
|  | C=C(F)c1ccc(N2CCN[C@@H](c3ccccc3)C2)nc1C(=O)c1cccnc1N [compound 475] | Ki (PKC alpha kinase): < 50 nM |
|  | CC[C@@H]1CN(c2ccc(C(F)(F)F)c(C(=O)c3cccnc3N)n2)C[C@H](CC(C)C)N1 [compound 488] | Ki (PKC alpha kinase): < 50 nM |
| 50 to 500 | C[C@H]1CN(c2ccc(C(F)(F)F)c(C(=O)c3cccnc3N)n2)CCN1 [compound 478] |  |
| 50 to 500 | Nc1ncc(Br)cc1C(=O)c1cccc(N2CCCN(CC3CC3)CC2)n1 [compound 113] |  |
| 50 to 500 | CCCC1CN(c2ccc(C(F)(F)F)c(C(=O)c3cccnc3N)n2)CCN1 (stereo not drawn) [compound 434] |  |
|  | C=C(F)c1ccc(N2CCNC(c3ccccc3)C2)nc1C(=O)c1cccnc1N (stereo not drawn) [compound 457] | Ki (PKC alpha kinase): < 50 nM |
| 50 to 500 | Nc1ncccc1C(=O)c1nc(N2CCNC(C3CC3)C2)ccc1C(F)(F)F (stereo not drawn) [compound 442] |  |
| 500 to 2800 | COCC1CN(c2ccc(C(F)(F)F)c(C(=O)c3cccnc3N)n2)CCN1 (stereo not drawn) [compound 455] |  |
| 50 to 500 | Nc1ncccc1C(=O)c1nc(N2CCN[C@@H](c3ccccc3)C2)ccc1C(F)(F)F [compound 448] |  |
| 50 to 500 | COCC#Cc1cnc(N)c(C(=O)c2cccc(N3CCCNCC3)n2)c1 [compound 138] |  |
|  | C=C(F)c1ccc(N2CCN[C@@H](CC(C)C)C2)nc1C(=O)c1cccnc1N [compound 424] | Ki (PKC alpha kinase): < 50 nM |
|  | CCC[C@@H]1CN(c2ccc(C(F)(F)F)c(C(=O)c3cccnc3N)n2)C[C@H](CC(C)C)N1 [compound 494] | Ki (PKC alpha kinase): < 50 nM |

| Ki (PKC delta kinase; [1]) [nM] | Compound | further results |
| --- | --- | --- |
| 50 to 500 | Cc1cnc(N)c(C(=O)c2nc(N3CCN[C@@H](CC(C)C)C3)ccc2C(F)(F)F)c1 [compound 499] |  |
| 50 to 500 | Nc1ncc(Br)cc1C(=O)c1nc(N2CCC(N)CC2)cs1 [compound 134] |  |
| 50 to 500 | Nc1ncccc1C(=O)c1cccc(N2CCCN(CC3CC3)CC2)n1 [compound 117] |  |
| 50 to 500 | CC[C@@](CN)(CNc1ccc(C(F)(F)F)c(C(=O)c2cccnc2N)n1)c1ccccc1 [compound 462] |  |
| 50 to 500 | CC(C)(O)CC1CN(c2ccc(C(F)(F)F)c(C(=O)c3cccnc3N)n2)CCN1 (stereo not drawn) [compound 459] |  |
|  | CN1CCCN(c2cccc(C(=O)c3cccnc3N)n2)CC1 [compound 82] | Ki (PKC delta kinase): 500 to 2800 nM |
| 500 to 2800 | Nc1ncc(Br)cc1C(=O)c1cccc(N2CCCN(C(=O)Cc3cccc(O)c3)CC2)n1 [compound 70] |  |
| 50 to 500 | Nc1ncccc1C(=O)c1cccc(N2CCCN(C(=O)CC(F)(F)F)CC2)n1 [compound 23] |  |
|  | C=C(F)c1ccc(N2CCNC(C(F)(F)F)C2)nc1C(=O)c1cccnc1N (stereo not drawn) [compound 504] | Ki (PKC alpha kinase): 500 to 2800 nM |
| 500 to 2800 | Cc1ccsc1C(=O)N1CCCN(c2cccc(C(=O)c3cccnc3N)n2)CC1 [compound 27] |  |
| 50 to 500 | Nc1ncc(Cl)cc1C(=O)c1nc(N2CCNC(c3ccccc3)C2)ccc1C(F)(F)F (stereo not drawn) [compound 496] |  |
| 500 to 2800 | CC(C)C(=O)N1CCCN(c2cccc(C(=O)c3cc(Br)cnc3N)n2)CC1 [compound 71] |  |
| 50 to 500 | CCc1cnc(N)c(C(=O)c2nc(N3CCN[C@@H](CC(C)C)C3)ccc2C(F)(F)F)c1 [compound 486] |  |
| 50 to 500 | CC(C)C[C@H]1CN(c2ccc(C(F)(F)F)c(C(=O)c3cc(Cl)cnc3N)n2)CCN1 [compound 480] |  |
| 50 to 500 | CC(C)[C@H]1CN(c2ccc(C(F)(F)F)c(C(=O)c3cccnc3N)n2)C[C@H](c2ccccc2)N1 [compound 450] |  |
| 50 to 500 | CC[C@H]1CN(c2ccc(C(F)(F)F)c(C(=O)c3cccnc3N)n2)C[C@H](C(C)C)N1 [compound 473] |  |
| 500 to 2800 | CC(C)(C)CCN1CCCN(c2cccc(C(=O)c3cc(Br)cnc3N)n2)CC1 [compound 76] |  |
| 50 to 500 | Nc1ncc(C(F)(F)F)cc1C(=O)c1cccc(N2CCCNCC2)n1 [compound 140] |  |
| 50 to 500 | Nc1ncc(Br)cc1C(=O)c1cccc(N2CCC(N3CCCC3)CC2)n1 [compound 121] |  |

| Compound | Ki (PKC delta kinase; [1]) [nM] | further results |
| --- | --- | --- |
| Nc1ncccc1C(=O)c1nc(N2CC3CCC(C2)N3)ccc1C(F)(F)F [compound 466] | 50 to 500 |  |
